{"source": "BigSolDB 2.1"}
{"compound": "Cc1occc(=O)c1O", "values": [{"measurement": "solubility (mole fraction)", "setting": "in 1,2-dichloroethane, 288.15 K", "value": 0.0109}, {"measurement": "solubility (mole fraction)", "setting": "in 1,2-dichloroethane, 293.15 K", "value": 0.0143}, {"measurement": "solubility (mole fraction)", "setting": "in 1,2-dichloroethane, 298.15 K", "value": 0.0174}, {"measurement": "solubility (mole fraction)", "setting": "in 1,2-dichloroethane, 303.15 K", "value": 0.0214}, {"measurement": "solubility (mole fraction)", "setting": "in 1,2-dichloroethane, 308.15 K", "value": 0.0262}, {"measurement": "solubility (mole fraction)", "setting": "in 1,2-dichloroethane, 313.15 K", "value": 0.0333}, {"measurement": "solubility (mole fraction)", "setting": "in 1,2-dichloroethane, 318.15 K", "value": 0.0378}, {"measurement": "solubility (mole fraction)", "setting": "in 1,2-dichloroethane, 323.15 K", "value": 0.048}, {"measurement": "solubility (mole fraction)", "setting": "in acetone, 288.15 K", "value": 0.0101}, {"measurement": "solubility (mole fraction)", "setting": "in acetone, 293.15 K", "value": 0.0116}, {"measurement": "solubility (mole fraction)", "setting": "in acetone, 298.15 K", "value": 0.0134}, {"measurement": "solubility (mole fraction)", "setting": "in acetone, 303.15 K", "value": 0.0157}, {"measurement": "solubility (mole fraction)", "setting": "in acetone, 308.15 K", "value": 0.0195}, {"measurement": "solubility (mole fraction)", "setting": "in acetone, 313.15 K", "value": 0.023}, {"measurement": "solubility (mole fraction)", "setting": "in acetone, 318.15 K", "value": 0.0265}, {"measurement": "solubility (mole fraction)", "setting": "in acetone, 323.15 K", "value": 0.0311}, {"measurement": "solubility (mole fraction)", "setting": "in acetonitrile, 288.15 K", "value": 0.00735}, {"measurement": "solubility (mole fraction)", "setting": "in acetonitrile, 293.15 K", "value": 0.00861}, {"measurement": "solubility (mole fraction)", "setting": "in acetonitrile, 298.15 K", "value": 0.0107}, {"measurement": "solubility (mole fraction)", "setting": "in acetonitrile, 303.15 K", "value": 0.0136}, {"measurement": "solubility (mole fraction)", "setting": "in acetonitrile, 308.15 K", "value": 0.016}, {"measurement": "solubility (mole fraction)", "setting": "in acetonitrile, 313.15 K", "value": 0.0209}, {"measurement": "solubility (mole fraction)", "setting": "in acetonitrile, 318.15 K", "value": 0.0258}, {"measurement": "solubility (mole fraction)", "setting": "in acetonitrile, 323.15 K", "value": 0.0325}, {"measurement": "solubility (mole fraction)", "setting": "in ethanol, 288.15 K", "value": 0.00894}, {"measurement": "solubility (mole fraction)", "setting": "in ethanol, 293.15 K", "value": 0.0106}, {"measurement": "solubility (mole fraction)", "setting": "in ethanol, 298.15 K", "value": 0.0125}, {"measurement": "solubility (mole fraction)", "setting": "in ethanol, 303.15 K", "value": 0.0156}, {"measurement": "solubility (mole fraction)", "setting": "in ethanol, 308.15 K", "value": 0.0211}, {"measurement": "solubility (mole fraction)", "setting": "in ethanol, 313.15 K", "value": 0.0273}, {"measurement": "solubility (mole fraction)", "setting": "in ethanol, 318.15 K", "value": 0.0331}, {"measurement": "solubility (mole fraction)", "setting": "in ethanol, 323.15 K", "value": 0.0427}, {"measurement": "solubility (mole fraction)", "setting": "in ethyl acetate, 288.15 K", "value": 0.0115}, {"measurement": "solubility (mole fraction)", "setting": "in ethyl acetate, 293.15 K", "value": 0.013}, {"measurement": "solubility (mole fraction)", "setting": "in ethyl acetate, 298.15 K", "value": 0.0153}, {"measurement": "solubility (mole fraction)", "setting": "in ethyl acetate, 303.15 K", "value": 0.02}, {"measurement": "solubility (mole fraction)", "setting": "in ethyl acetate, 308.15 K", "value": 0.0225}, {"measurement": "solubility (mole fraction)", "setting": "in ethyl acetate, 313.15 K", "value": 0.0276}, {"measurement": "solubility (mole fraction)", "setting": "in ethyl acetate, 318.15 K", "value": 0.0337}, {"measurement": "solubility (mole fraction)", "setting": "in ethyl acetate, 323.15 K", "value": 0.0413}, {"measurement": "solubility (mole fraction)", "setting": "in isobutanol, 288.15 K", "value": 0.00638}, {"measurement": "solubility (mole fraction)", "setting": "in isobutanol, 293.15 K", "value": 0.00832}, {"measurement": "solubility (mole fraction)", "setting": "in isobutanol, 298.15 K", "value": 0.0108}, {"measurement": "solubility (mole fraction)", "setting": "in isobutanol, 303.15 K", "value": 0.0134}, {"measurement": "solubility (mole fraction)", "setting": "in isobutanol, 308.15 K", "value": 0.0185}, {"measurement": "solubility (mole fraction)", "setting": "in isobutanol, 313.15 K", "value": 0.0238}, {"measurement": "solubility (mole fraction)", "setting": "in isobutanol, 318.15 K", "value": 0.0293}, {"measurement": "solubility (mole fraction)", "setting": "in isobutanol, 323.15 K", "value": 0.0349}, {"measurement": "solubility (mole fraction)", "setting": "in isopropanol, 288.15 K", "value": 0.00683}, {"measurement": "solubility (mole fraction)", "setting": "in isopropanol, 293.15 K", "value": 0.00812}, {"measurement": "solubility (mole fraction)", "setting": "in isopropanol, 298.15 K", "value": 0.0103}, {"measurement": "solubility (mole fraction)", "setting": "in isopropanol, 303.15 K", "value": 0.0129}, {"measurement": "solubility (mole fraction)", "setting": "in isopropanol, 308.15 K", "value": 0.0161}, {"measurement": "solubility (mole fraction)", "setting": "in isopropanol, 313.15 K", "value": 0.021}, {"measurement": "solubility (mole fraction)", "setting": "in isopropanol, 318.15 K", "value": 0.0265}, {"measurement": "solubility (mole fraction)", "setting": "in isopropanol, 323.15 K", "value": 0.0328}, {"measurement": "solubility (mole fraction)", "setting": "in methanol, 288.15 K", "value": 0.0135}, {"measurement": "solubility (mole fraction)", "setting": "in methanol, 293.15 K", "value": 0.0159}, {"measurement": "solubility (mole fraction)", "setting": "in methanol, 298.15 K", "value": 0.0185}, {"measurement": "solubility (mole fraction)", "setting": "in methanol, 303.15 K", "value": 0.0223}, {"measurement": "solubility (mole fraction)", "setting": "in methanol, 308.15 K", "value": 0.0267}, {"measurement": "solubility (mole fraction)", "setting": "in methanol, 313.15 K", "value": 0.0325}, {"measurement": "solubility (mole fraction)", "setting": "in methanol, 318.15 K", "value": 0.0373}, {"measurement": "solubility (mole fraction)", "setting": "in methanol, 323.15 K", "value": 0.0465}, {"measurement": "solubility (mole fraction)", "setting": "in n-butanol, 288.15 K", "value": 0.00705}, {"measurement": "solubility (mole fraction)", "setting": "in n-butanol, 293.15 K", "value": 0.00917}, {"measurement": "solubility (mole fraction)", "setting": "in n-butanol, 298.15 K", "value": 0.0115}, {"measurement": "solubility (mole fraction)", "setting": "in n-butanol, 303.15 K", "value": 0.0143}, {"measurement": "solubility (mole fraction)", "setting": "in n-butanol, 308.15 K", "value": 0.0182}, {"measurement": "solubility (mole fraction)", "setting": "in n-butanol, 313.15 K", "value": 0.0228}, {"measurement": "solubility (mole fraction)", "setting": "in n-butanol, 318.15 K", "value": 0.03}, {"measurement": "solubility (mole fraction)", "setting": "in n-butanol, 323.15 K", "value": 0.0365}, {"measurement": "solubility (mole fraction)", "setting": "in n-butyl acetate, 288.15 K", "value": 0.00889}, {"measurement": "solubility (mole fraction)", "setting": "in n-butyl acetate, 293.15 K", "value": 0.0101}, {"measurement": "solubility (mole fraction)", "setting": "in n-butyl acetate, 298.15 K", "value": 0.0128}, {"measurement": "solubility (mole fraction)", "setting": "in n-butyl acetate, 303.15 K", "value": 0.0148}, {"measurement": "solubility (mole fraction)", "setting": "in n-butyl acetate, 308.15 K", "value": 0.0193}, {"measurement": "solubility (mole fraction)", "setting": "in n-butyl acetate, 313.15 K", "value": 0.0229}, {"measurement": "solubility (mole fraction)", "setting": "in n-butyl acetate, 318.15 K", "value": 0.0281}, {"measurement": "solubility (mole fraction)", "setting": "in n-butyl acetate, 323.15 K", "value": 0.0317}, {"measurement": "solubility (mole fraction)", "setting": "in n-propanol, 288.15 K", "value": 0.00705}, {"measurement": "solubility (mole fraction)", "setting": "in n-propanol, 293.15 K", "value": 0.00931}, {"measurement": "solubility (mole fraction)", "setting": "in n-propanol, 298.15 K", "value": 0.0118}, {"measurement": "solubility (mole fraction)", "setting": "in n-propanol, 303.15 K", "value": 0.0144}, {"measurement": "solubility (mole fraction)", "setting": "in n-propanol, 308.15 K", "value": 0.0182}, {"measurement": "solubility (mole fraction)", "setting": "in n-propanol, 313.15 K", "value": 0.0233}, {"measurement": "solubility (mole fraction)", "setting": "in n-propanol, 318.15 K", "value": 0.028}, {"measurement": "solubility (mole fraction)", "setting": "in n-propanol, 323.15 K", "value": 0.0341}, {"measurement": "solubility (mole fraction)", "setting": "in n-propyl acetate, 288.15 K", "value": 0.00974}, {"measurement": "solubility (mole fraction)", "setting": "in n-propyl acetate, 293.15 K", "value": 0.0105}, {"measurement": "solubility (mole fraction)", "setting": "in n-propyl acetate, 298.15 K", "value": 0.013}, {"measurement": "solubility (mole fraction)", "setting": "in n-propyl acetate, 303.15 K", "value": 0.0151}, {"measurement": "solubility (mole fraction)", "setting": "in n-propyl acetate, 308.15 K", "value": 0.0181}, {"measurement": "solubility (mole fraction)", "setting": "in n-propyl acetate, 313.15 K", "value": 0.0226}, {"measurement": "solubility (mole fraction)", "setting": "in n-propyl acetate, 318.15 K", "value": 0.026}, {"measurement": "solubility (mole fraction)", "setting": "in n-propyl acetate, 323.15 K", "value": 0.0316}, {"measurement": "solubility (mole fraction)", "setting": "in sec-butanol, 288.15 K", "value": 0.00716}, {"measurement": "solubility (mole fraction)", "setting": "in sec-butanol, 293.15 K", "value": 0.00927}, {"measurement": "solubility (mole fraction)", "setting": "in sec-butanol, 298.15 K", "value": 0.0111}, {"measurement": "solubility (mole fraction)", "setting": "in sec-butanol, 303.15 K", "value": 0.0153}, {"measurement": "solubility (mole fraction)", "setting": "in sec-butanol, 308.15 K", "value": 0.0177}, {"measurement": "solubility (mole fraction)", "setting": "in sec-butanol, 313.15 K", "value": 0.0244}, {"measurement": "solubility (mole fraction)", "setting": "in sec-butanol, 318.15 K", "value": 0.0304}, {"measurement": "solubility (mole fraction)", "setting": "in sec-butanol, 323.15 K", "value": 0.0408}]}
